According to publication PMC10050424, “Structural basis of the substrate recognition and inhibition mechanism of Plasmodium falciparum nucleoside transporter PfENT1” (Nature Communications, 2023):
pKd: −log10 of the molar value. Values joined by “and” are separate entries in the source; they are usually repeats but may differ in a detail not shown here. Identical values can stand only once.

What was measured:
PfENT1 = molecular target: T1, PfENT1 (Plasmodium falciparum, UniProt Q8IDM6); test: cell-based; type: cell-based; settings: uptake without competitor set as 100%, Fig. 1c; for remaining activity at 5000 µM: 0.5 h, read-out: Uptake of [3H]-inosine (Percentage of PfENT1 WT), competition by nonradioactive nucleoside/nucleobase 5 mM, 30 min, 30 °C; for Uptake of [3H]-inosine (Percentage of PfENT1 WT): competition by nonradioactive nucleoside/nucleobase 5 mM, 30 min, 30 °C
T1 construct: expressed in transfected cells; host or cells: S. cerevisiae BY4741, FUI1 deleted, PfENT1 knock-in under the TEF1 promoter
Experimental: The S. cerevisiae strain (ATCC, #201388) BY4741 (MATa his3Δ1 leu2Δ0 met15Δ0 ura3Δ0) was used as the starting yeast strain. Yeast strains were cultured in YPD medium (20 g/L peptone, 10 g/L yeast extract, and 20 g/L dextrose). The antibiotic G418 was supplemented at a concentration of 250 μg/mL to select strains carrying the KanMX marker. E. coli DH5α was used for subcloning.
Codon-optimized PfENT1 (for expression in yeast) was synthesized by Sangon Biotech. The carboxyl terminus of PfENT1 was HA-tagged through PCR. The TEF1p promoter and PGK1t terminator were amplified from BY4741 genomic DNA. Overlap PCR was applied to generate the gene overexpression cassette of PfENT1 (TEF1p promoter-PfENT1-PGK1t terminator). The two 600-bp homologous arms corresponding to the upstream and downstream regions of the FUI1 gene were amplified from BY4741 genomic DNA. The gene cassette of the ‘TEF1p promoter-PfENT1-PGK1t terminator’ together with the two homologous arms was cloned into the PUC19 plasmid through Gibson assembly, generating the final plasmid PUC19: PfENT1. PfENT1 mutations were generated using point mutation and verified by Sanger sequencing. The spacer targeting the FUI1 gene (5ʹ-[…]-3ʹ) was cloned into the pCas-BsaI plasmid to generate the pCas-FUI1 plasmid as described previously.
To obtain fui1Δ and PfENT1 (or its mutations) overexpression in the S. cerevisiae strain, 1 μg pCas-FUI1 plasmid and 15 μg PUC19:PfENT1 were transformed into yeast using the LiAc/ssDNA/PEG method. Then, the strains were plated on a YPD plate supplemented with G418. Clones were screened using PCR and finally verified through Sanger sequencing.
Cells were grown overnight in YPD medium to mid-log phase and harvested by centrifugation at 3000 × g for 5 min. Cells were washed three times in 2% glucose. The yeast pellets were resuspended in uptake assay buffer (25 mM Tris-HCl 8.0,150 mM NaCl, 2% glucose) to a final concentration of 2 × 10^8 cells mL^–1. The uptake assay was initiated by combining 100 μL of prewarmed (30 °C) cells and 100 μL uptake assay buffer mixture: 25 mM Tris-HCl 8.0, 150 mM NaCl, 2% glucose, 200 nM [^3H] Inosine ([8-^3H] inosine; 20 Ci mmol^–1, American Radiolabeled Chemicals). Cells were removed onto a membrane filter at the appropriate times to generate the time course. After washing by vacuum filtration with 2 ml ice-cold 2% glucose, the radioactivity retained on the filter was incubated with 1 mL of ULTIMA GOLD scintillation fluid (Perkin Elmer, 77-15311). Counts were measured using a liquid scintillation analyzer (Perkin Elmer, Tri-Carb 5110TR).
For competition assays, the indicated nucleosides and nucleobase were added into the external uptake assay buffer (25 mM Tris-HCl 8.0, 150 mM NaCl, and 2% glucose) to a final concentration of 5 mM, and the transport reaction was stopped at 30 min. The reading of the competition assays was normalized against the one without a competitor, which had the uptake of radiolabeled inosine set as 100%. All uptake assays were performed at 30 °C and repeated three times. Error bars represent the s.d. The final result was analyzed in the GraphPad Prism 8 software ([…]).

PfENT1WT = molecular target: T2, PfENT1WT (Plasmodium falciparum, UniProt Q8IDM6); test: biochemical; type: binding
T2 construct: 10xHis (N); made in house; host or cells: Sf9 insect cells (baculovirus)
Experimental: For the in vitro binding assay, Sf9 cells were solubilized in lysis buffer containing 2% (w/v) n-dodecyl-β-D-maltopyranoside (DDM, Anatrace) and protease inhibitor cocktail (0.8 μM aprotinin, 2 μM pepstatin, and 5 μg/ml leupeptin) at 4 °C for 2 h. The soluble supernatant was collected via centrifugation and incubated with Ni-NTA resin (QIAGEN) at 4 °C for 1 h. The resin was washed and eluted using lysis buffer containing 0.05% (w/v) DDM and 30 mM/300 mM imidazole. The protein was further purified by size-exclusion chromatography (Superdex 200 Increase 10/300; GE Healthcare) in buffer containing 25 mM MES (pH 6.0), 150 mM NaCl, and 0.05% (w/v) DDM. The peak fractions were pooled and concentrated to 10~50 μM for the nucleoside-binding assay.
The binding affinity between wild-type and mutant PfENT1 with nucleosides and GSK4 was measured using a Micro-Cal ITC200 (Malvern). All proteins were prepared in 25 mM MES (pH 6.0), 150 mM NaCl, and 0.05% (w/v) DDM. Nucleosides (5~10 mM) and GSK4 (100-200 μM) dissolved in the same buffer were titrated against 20–50 μM PfENT1 proteins at 25 °C. PEAQ-ITC analysis software (MicroCal) was employed to analyze the data. All titrations were repeated three times.

[1] = ITC, 25 °C, pH 6.0, mean ± SD (n = 3), Fig. 1a and text

T2 sequence (Q8IDM6 whole entry): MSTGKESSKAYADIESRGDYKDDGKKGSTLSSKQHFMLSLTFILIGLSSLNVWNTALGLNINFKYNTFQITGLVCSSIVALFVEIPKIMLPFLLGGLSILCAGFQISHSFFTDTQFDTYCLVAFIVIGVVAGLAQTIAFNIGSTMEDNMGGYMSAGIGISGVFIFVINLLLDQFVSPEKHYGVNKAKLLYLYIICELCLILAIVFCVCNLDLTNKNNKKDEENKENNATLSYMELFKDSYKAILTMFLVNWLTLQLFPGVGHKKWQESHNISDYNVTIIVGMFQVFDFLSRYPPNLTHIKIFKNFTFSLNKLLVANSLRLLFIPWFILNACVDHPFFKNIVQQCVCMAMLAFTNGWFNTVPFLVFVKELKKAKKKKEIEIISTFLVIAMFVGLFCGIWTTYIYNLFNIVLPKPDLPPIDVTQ
T1 sequence (Q8IDM6 whole entry): as above

With `Nc1ncnc2c1ncn2[C@@H]1O[C@H](CO)[C@@H](O)[C@H]1O` [Adenosine, adenosine] the remaining activity at 5000 µM (PfENT1) was 18% and the “Uptake of [3H]-inosine (Percentage of PfENT1 WT)” value (PfENT1) was “relatively lower than that of inosine and guanosine”.
In the case of `Nc1ccn([C@@H]2O[C@H](CO)[C@@H](O)[C@H]2O)c(=O)n1` [Cytidine, cytidine], the “binding affinity (Kd)” value (PfENT1WT; [1]) was “undetectable” and the “Uptake of [3H]-inosine (Percentage of PfENT1 WT)” value (PfENT1) was “did not influence inosine uptake”.
With `Nc1nc2c(ncn2[C@@H]2O[C@H](CO)[C@@H](O)[C@H]2O)c(=O)[nH]1` [Guanosine, guanosine] the pKd (PfENT1WT; Kd, Mean and Mean ± SD, source data Figure 1a) was 3.73, the pKd (PfENT1WT; Kd, N=3 (individual experiments), source data Figure 1a) was 3.76 and 3.75 and 3.68 and the pKd (PfENT1WT; binding affinity (Kd), ITC, 25 °C, pH 6.0, mean ± SD (n = 3), Fig. 1a and text) was ~3.73 and 3.73. The remaining activity at 5000 µM (PfENT1) was 10% and the “Uptake of [3H]-inosine (Percentage of PfENT1 WT)” value (PfENT1) was “abolished”.
For `O=c1[nH]cnc2nc[nH]c12` [Hypoxanthine, hypoxanthine], the “binding affinity (Kd)” value (PfENT1WT; [1]) was “undetectable”, the remaining activity at 5000 µM (PfENT1) was 23% and the “Uptake of [3H]-inosine (Percentage of PfENT1 WT)” value (PfENT1) was “partial inhibition”.
With `Cc1cn([C@H]2C[C@H](O)[C@@H](CO)O2)c(=O)[nH]c1=O` [Thymidine, thymidine] the “binding affinity (Kd)” value (PfENT1WT; [1]) was “undetectable”, the remaining activity at 5000 µM (PfENT1) was 42% and the “Uptake of [3H]-inosine (Percentage of PfENT1 WT)” value (PfENT1) was 41%. The “Uptake of [3H]-inosine (Percentage of PfENT1 WT)” value (PfENT1; listed as thymidine) was “partially reduce inosine uptake”.
With `O=c1ccn([C@@H]2O[C@H](CO)[C@@H](O)[C@H]2O)c(=O)[nH]1` [Uridine, uridine] the “binding affinity (Kd)” value (PfENT1WT; [1]) was “undetectable”, the remaining activity at 5000 µM (PfENT1) was 81% and the “Uptake of [3H]-inosine (Percentage of PfENT1 WT)” value (PfENT1) was “partially reduce inosine uptake”.
